Measured values as given in ChEMBL document CHEMBL5370622 (J Nat Prod, 2023).
Blank lines part the entries; values can stand above or below the molecule they belong to.

Assays:
[1] = Inhibition of human full length […] gene fusion of J-PKAc alpha chimeric protein expressed in Escherichia coli BL21 (DE3) cells using CREB KRREILSRRPSYR-biotinylated peptide as substrate incubated for 45 mins in presence of ATP by ELISA
[2] = biological target: cAMP-dependent protein kinase catalytic subunit alpha (Homo sapiens, UniProt P17612); test: Inhibition of wild type PKAc alpha (unknown origin) using CREB KRREILSRRPSYR-biotinylated peptide as substrate incubated for 45 mins in presence of ATP by ELISA
[3] = Binding affinity to human full length […] gene fusion of J-PKAc alpha chimeric protein expressed in Escherichia coli BL21 (DE3) cells assessed as dissociation constant by MST assay
[4] = biological target: Dual specificity tyrosine-phosphorylation-regulated kinase 1A (Homo sapiens) (UniProt Q13627); test: Inhibition of human DYRK1A at 50 nM in presence of ATP by radiometric hotspot kinase assay relative to control
[5] = biological target: Dual specificity tyrosine-phosphorylation-regulated kinase 1B (Homo sapiens) (UniProt Q9Y463); test: Inhibition of human DYRK1B at 50 nM in presence of ATP by radiometric hotspot kinase assay relative to control
Chain of Dual specificity tyrosine-phosphorylation-regulated kinase 1B (Homo sapiens) (Q9Y463 whole entry, looked up): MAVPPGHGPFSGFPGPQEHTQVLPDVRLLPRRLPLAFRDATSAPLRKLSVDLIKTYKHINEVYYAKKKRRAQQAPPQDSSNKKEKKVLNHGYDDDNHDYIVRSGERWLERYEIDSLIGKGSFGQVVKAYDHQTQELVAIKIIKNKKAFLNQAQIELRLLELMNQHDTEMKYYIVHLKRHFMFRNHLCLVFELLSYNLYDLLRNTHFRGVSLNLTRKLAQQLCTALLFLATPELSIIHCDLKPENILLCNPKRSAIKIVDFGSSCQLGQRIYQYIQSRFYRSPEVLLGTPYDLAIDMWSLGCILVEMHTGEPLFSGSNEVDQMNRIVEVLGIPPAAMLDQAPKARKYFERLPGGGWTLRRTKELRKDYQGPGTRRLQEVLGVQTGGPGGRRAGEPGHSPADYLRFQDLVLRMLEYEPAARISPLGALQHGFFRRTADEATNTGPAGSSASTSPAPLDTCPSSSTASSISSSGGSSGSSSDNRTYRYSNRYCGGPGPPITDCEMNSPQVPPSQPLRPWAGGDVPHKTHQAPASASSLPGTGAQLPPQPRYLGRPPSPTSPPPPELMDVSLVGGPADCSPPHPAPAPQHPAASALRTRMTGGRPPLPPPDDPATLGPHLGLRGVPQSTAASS

[6] = biological target: T1, Dual specificity tyrosine-phosphorylation-regulated kinase 2 (Homo sapiens) (UniProt Q92630); test: Inhibition of human DYRK2 at 50 nM in presence of ATP by radiometric hotspot kinase assay relative to control
T1 sequence (whole entry): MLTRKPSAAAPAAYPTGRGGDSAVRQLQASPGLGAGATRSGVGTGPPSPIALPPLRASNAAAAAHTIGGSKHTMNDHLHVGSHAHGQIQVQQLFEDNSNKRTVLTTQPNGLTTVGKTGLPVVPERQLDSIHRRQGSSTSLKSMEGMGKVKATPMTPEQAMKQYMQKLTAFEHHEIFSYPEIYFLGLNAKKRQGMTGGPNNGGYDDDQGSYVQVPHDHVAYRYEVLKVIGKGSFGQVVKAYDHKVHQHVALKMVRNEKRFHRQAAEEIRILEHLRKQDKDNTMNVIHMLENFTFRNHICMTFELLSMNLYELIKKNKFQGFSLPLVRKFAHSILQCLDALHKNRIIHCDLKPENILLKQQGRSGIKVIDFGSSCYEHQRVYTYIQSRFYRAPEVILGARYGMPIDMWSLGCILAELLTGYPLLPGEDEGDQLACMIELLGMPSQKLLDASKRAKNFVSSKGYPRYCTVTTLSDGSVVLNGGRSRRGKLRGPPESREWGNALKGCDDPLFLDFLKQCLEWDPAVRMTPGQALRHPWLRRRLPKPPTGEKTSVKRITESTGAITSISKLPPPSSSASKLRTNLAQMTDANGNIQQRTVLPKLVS

[7] = biological target: T2, Dual specificity tyrosine-phosphorylation-regulated kinase 3 (Homo sapiens) (UniProt O43781); test: Inhibition of human DYRK3 at 50 nM in presence of ATP by radiometric hotspot kinase assay relative to control
T2 sequence (whole entry): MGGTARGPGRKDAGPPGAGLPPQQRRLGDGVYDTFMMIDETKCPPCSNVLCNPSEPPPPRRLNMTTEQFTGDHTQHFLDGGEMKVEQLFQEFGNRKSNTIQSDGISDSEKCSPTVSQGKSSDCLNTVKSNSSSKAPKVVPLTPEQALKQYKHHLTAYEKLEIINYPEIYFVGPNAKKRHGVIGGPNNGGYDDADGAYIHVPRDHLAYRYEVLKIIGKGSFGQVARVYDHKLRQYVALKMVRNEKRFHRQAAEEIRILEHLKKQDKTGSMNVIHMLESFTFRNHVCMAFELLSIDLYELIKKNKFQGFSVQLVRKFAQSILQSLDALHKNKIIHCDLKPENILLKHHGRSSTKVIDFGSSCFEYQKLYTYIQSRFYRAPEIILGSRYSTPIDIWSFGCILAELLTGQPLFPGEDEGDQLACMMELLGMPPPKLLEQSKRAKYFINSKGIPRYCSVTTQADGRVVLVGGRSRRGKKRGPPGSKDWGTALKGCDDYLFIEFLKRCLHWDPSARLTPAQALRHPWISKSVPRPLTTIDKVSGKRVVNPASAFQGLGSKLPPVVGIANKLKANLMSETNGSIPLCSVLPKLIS

Structure (SMILES): Cn1c(Br)nc(Br)c1C1=CN(c2ncnc3[nH]cnc23)CCS1
IC50 [1]: > 200 µM

Structure (SMILES): Cn1cncc1C1=CN(c2ncnc3[nH]cnc23)CCS1(=O)=O
IC50 [1]: > 200 µM

Further lines, with some results ahead:

IC50 [1]: 79 µM
IC50 [2]: 90 µM
Structure (SMILES): Cn1cncc1C1=CN(c2ncnc3[nH]c(=O)[nH]c23)CCS1
Kd [3]: 37 µM

IC50 [1]: > 200 µM
Structure (SMILES): Cn1cncc1C1=CN(c2ncnc3[nH]cnc23)CC[S+]1[O-] (configuration not stated)

inhibition [4]: 23%
inhibition [5]: 23%
inhibition [6]: 21%
inhibition [7]: 16%
Structure (SMILES): Cn1cncc1C1=CN(c2ncnc3[nH]cnc23)CCS1

IC50 [1]: 1.04 µM
IC50 [2]: 1.1 µM
inhibition [4]: 61%
inhibition [5]: 49%
inhibition [6]: 56%
inhibition [7]: 49%
Structure (SMILES): Cn1cnc(Br)c1C1=CN(c2ncnc3[nH]cnc23)CCS1
Kd [3]: 3 µM
